Source: ChEMBL document CHEMBL1138565, “Docking, 3D-QSAR studies and in silico ADME prediction on c-Src tyrosine kinase inhibitors” (Eur J Med Chem, 2009)

target: Proto-oncogene tyrosine-protein kinase Src (Homo sapiens, UniProt P12931); assay: Inhibition of c-Src
Sequence (P12931 2-536 limits assumed): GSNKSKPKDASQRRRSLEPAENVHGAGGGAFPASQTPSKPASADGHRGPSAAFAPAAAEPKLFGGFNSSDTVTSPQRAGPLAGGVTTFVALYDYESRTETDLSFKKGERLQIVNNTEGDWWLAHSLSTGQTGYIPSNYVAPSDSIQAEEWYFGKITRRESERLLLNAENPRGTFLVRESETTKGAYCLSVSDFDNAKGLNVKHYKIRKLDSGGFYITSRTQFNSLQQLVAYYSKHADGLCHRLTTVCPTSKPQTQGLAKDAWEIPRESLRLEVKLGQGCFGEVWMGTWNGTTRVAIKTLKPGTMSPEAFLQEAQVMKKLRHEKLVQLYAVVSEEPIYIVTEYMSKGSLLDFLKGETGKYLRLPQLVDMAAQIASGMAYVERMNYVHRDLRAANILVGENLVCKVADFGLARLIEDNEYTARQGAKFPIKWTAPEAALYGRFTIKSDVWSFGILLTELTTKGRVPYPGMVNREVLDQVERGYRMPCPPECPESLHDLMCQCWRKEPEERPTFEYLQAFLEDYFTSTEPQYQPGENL

| Structure (SMILES) | IC50 | Ki |
| --- | --- | --- |
| COc1cccc(-c2cn(C3CCN(CC(N)=O)CC3)c3ncnc(N)c23)c1 | 0.02 µM | – |
| COc1cccc(-c2cn(C3CCN(CCN(C)CCO)CC3)c3ncnc(N)c23)c1 | 0.00631 µM | – |
| CCOC(=O)C[C@@H]1C[C@H](n2cc(-c3ccccc3)c3c(N)ncnc32)CN1C(=O)OC(C)(C)C | 5.01 µM | – |
| COc1cccc(-c2cn(-c3ccc(CC(=O)NCCO)cc3)c3ncnc(N)c23)c1 | 0.02 µM | – |
| OCCNCCOc1ccc(-n2cc(-c3cccc(O)c3)c3cncnc32)cc1 | 0.0398 µM | – |
| COC(=O)CN1CCC(n2cc(-c3cccc(OC)c3)c3c(N)ncnc32)CC1 | 0.0794 µM | – |
| CC(C)(C)OC(=O)N1C[C@H](n2cc(-c3ccccc3)c3c(N)ncnc32)C[C@H]1CO | 0.126 µM | – |
| COc1cccc(-c2cn(-c3cccc(CO)c3)c3ncnc(N)c23)c1 | 0.0631 µM | – |
| COCCN(C)CCN1CCC(n2cc(-c3cccc(OC)c3)c3c(N)ncnc32)CC1 | 0.0501 µM | – |
| ClC(Cn1ncc2c(NCCc3ccccc3)ncnc21)c1ccccc1 (centres undefined) | – | 2 µM |
| CCOC(=O)C[C@@H]1C[C@@H](n2cc(-c3ccc(O)cc3)c3c(N)ncnc32)CN1 | 0.1 µM | – |
| Nc1ncnc2c1c(-c1ccccc1)cn2CC(CO)CO | 0.2 µM | – |
| CCOC(=O)C[C@@H]1C[C@@H](n2cc(-c3ccccc3)c3c(N)ncnc32)CN1 | 0.631 µM | – |
| Nc1ncnc2c1c(-c1ccccc1)cn2-c1cccc(CO)c1 | 0.0631 µM | – |
| Nc1ncnc2c1c(-c1ccccc1)cn2-c1ccc(CO)cc1 | 0.02 µM | – |
| Nc1ncnc2c1c(-c1ccccc1)cn2-c1ccc(CNCCO)cc1 | 0.0316 µM | – |
| COc1cccc(-c2cn(C3CCN(CCO)CC3)c3ncnc(N)c23)c1 | 0.0251 µM | – |
| CCOC(=O)C[C@@H]1C[C@H](n2cc(-c3ccccc3)c3c(N)ncnc32)CN1 | 0.0158 µM | – |
| CCCNc1ncnc2c1cnn2CC(O)c1ccccc1 (centres undefined) | – | 10 µM |
| Nc1ncnc2c1c(-c1ccccc1)cn2-c1ccccc1 | 0.1 µM | – |
| Nc1ncnc2c1c(-c1ccccc1)cn2[C@H](CO)c1ccccc1 | 5.01 µM | – |

| Structure (SMILES) | IC50 | Ki |
| --- | --- | --- |
| COc1cccc(-c2cn(-c3ccc(CNCCO)cc3)c3ncnc(N)c23)c1 | 0.0316 µM | – |
| CCOC(=O)C[C@@H]1C[C@@H](n2cc(-c3ccc(O)cc3)c3c(N)ncnc32)CN1C(=O)OC(C)(C)C | 0.0316 µM | – |
| Nc1ncnc2c1c(-c1ccccc1)cn2C1CCC1 | 0.1 µM | – |
| CC(C)(C)OC(=O)N1C[C@@H](n2cc(-c3ccc(O)cc3)c3c(N)ncnc32)C[C@H]1CO | 0.316 µM | – |
| CSc1nc(Nc2cccc(Cl)c2)c2cnn(CC(Cl)c3ccccc3)c2n1 (centres undefined) | – | 0.794 µM |
| COc1cccc(-c2cn(CC(CO)CO)c3ncnc(N)c23)c1 | 0.316 µM | – |
| CCOC(=O)C[C@@H]1C[C@H](n2cc(-c3ccc(O)cc3)c3c(N)ncnc32)CN1 | 0.00501 µM | – |
| Nc1ncnc2c1c(-c1ccccc1)cn2-c1ccccc1CNCCO | 5.01 µM | – |
| Nc1ncnc2c1c(-c1ccc(O)cc1)cn2[C@@H]1CN[C@H](CO)C1 | 0.0501 µM | – |
| COc1ccc(-c2cn(-c3ccccc3)c3ncnc(N)c23)cc1 | 0.158 µM | – |
| Clc1ncnc2c1c(-c1ccccc1)cn2-c1ccccc1 | 7.94 µM | – |
| Nc1ncnc2c1c(-c1ccccc1)cn2C1CC1 | 0.251 µM | – |
| CC(C)(C)OC(=O)N1C[C@@H](n2cc(-c3ccccc3)c3c(N)ncnc32)C[C@H]1CO | 2 µM | – |
| COc1ccc(-c2cn(C3CCC3)c3ncnc(N)c23)cc1 | 0.2 µM | – |
| COc1cccc(-c2cn(C3CCCC3)c3ncnc(N)c23)c1 | 0.002 µM | – |
| COc1cccc(-c2cn(C3CCC3)c3ncnc(N)c23)c1 | 0.0398 µM | – |
| O=C(O)c1cnc2c(cnn2/C=C/c2ccccc2)c1NCc1ccccc1 | – | 3.98 µM |
| COc1cccc(-c2cn(C3CCN(CC(=O)N(C)C)CC3)c3ncnc(N)c23)c1 | 0.0631 µM | – |
| Nc1ncnc2c1c(-c1ccccc1)nn2-c1ccccc1 | 0.501 µM | – |
| Nc1ncnc2c1c(-c1ccccc1)cn2CCC(CO)CO | 2.51 µM | – |
| COc1ccc(-c2cn(C3CCCC3)c3ncnc(N)c23)cc1 | 0.0794 µM | – |

The remaining lines, values ahead:

| IC50 | Ki | Structure (SMILES) |
| --- | --- | --- |
| 0.02 µM | – | COc1cccc(-c2cn(-c3ccc(CCN4CCC(O)CC4)cc3)c3ncnc(N)c23)c1 |
| 0.01 µM | – | Nc1ncnc2c1c(-c1ccccc1)cn2-c1cccc(CNCCO)c1 |
| 10 µM | – | CNc1ncnc2c1c(-c1ccccc1)cn2-c1ccccc1 |
| – | 10 µM | OC(Cn1ncc2c(NCc3ccc(F)cc3)ncnc21)c1ccccc1 (centres undefined) |
| 0.316 µM | – | CCOC(=O)C[C@@H]1C[C@H](n2cc(-c3ccc(O)cc3)c3c(N)ncnc32)CN1C(=O)OC(C)(C)C |
| 0.001 µM | – | Nc1ncnc2c1c(-c1cccc(O)c1)cn2C1CCCC1 |
| 0.0501 µM | – | COc1cccc(-c2cn(-c3ccccc3)c3ncnc(N)c23)c1 |
| 0.02 µM | – | Nc1ncnc2c1c(-c1ccc(O)cc1)cn2C1CCCC1 |
| 10 µM | – | O=c1[nH]cnc2c1c(-c1ccccc1)cn2-c1ccccc1 |
| 0.316 µM | – | Nc1ncnc2c1c(-c1ccccc1)cn2-c1ccccc1CO |
| 0.00398 µM | – | Nc1ncnc2c1c(-c1cccc(O)c1)cn2C1CCC1 |
| 10 µM | – | CCOC(=O)c1ccc(-c2cn(-c3ccccc3)c3ncnc(N)c23)cc1 |
| – | 3.16 µM | ClC(Cn1ncc2c(NCc3ccccc3)ncnc21)c1ccccc1 (centres undefined) |
| 0.501 µM | – | Nc1ncnc2c1c(-c1ccc(O)cc1)cn2CC(CO)CO |
| 0.316 µM | – | Nc1ncnc2c1c(-c1ccccc1)cn2[C@H]1CN[C@H](CO)C1 |
| 0.501 µM | – | Nc1ncnc2c1c(-c1ccccc1)cn2[C@@H](CO)c1ccccc1 |
| 0.0316 µM | – | COc1cccc(-c2cn(-c3ccc(CCN(C)CCO)cc3)c3ncnc(N)c23)c1 |
| 0.126 µM | – | Nc1ncnc2c1c(-c1ccccc1)cn2C1CCCC1 |
| 6.31 µM | – | COc1ccccc1-c1cn(-c2ccccc2)c2ncnc(N)c12 |
| 0.01 µM | – | Nc1ncnc2c1c(-c1ccc(O)cc1)cn2C1CCC1 |
| 0.0251 µM | – | CC(C)(C)OC(=O)N1C[C@H](n2cc(-c3ccc(O)cc3)c3c(N)ncnc32)C[C@H]1CO |
| 0.001 µM | – | COC(=O)CN1CCC(n2cc(-c3cccc(O)c3)c3c(N)ncnc32)CC1 |
| 0.398 µM | – | CCOC(=O)C[C@@H]1C[C@@H](n2cc(-c3ccccc3)c3c(N)ncnc32)CN1C(=O)OC(C)(C)C |
| 0.1 µM | – | Nc1ncnc2c1c(-c1ccc(O)cc1)cn2[C@H]1CN[C@H](CO)C1 |
| 0.00316 µM | – | CN(C)C(=O)CN1CCC(n2cc(-c3cccc(O)c3)c3c(N)ncnc32)CC1 |
| 0.2 µM | – | Nc1ncnc2c1c(-c1cccc(Cl)c1)cn2-c1ccccc1 |
| 0.126 µM | – | Nc1ncnc2c1c(-c1ccccc1)cn2[C@@H]1CN[C@H](CO)C1 |
